Laboratory results taken from patent US20240239790A1, “7-Morpholino-1,6-Naphthyridin-5-yl Derivatives and Pharmaceutical Compositions Thereof Useful as DNA-PK Inhibitor” (adMare Therapeutics Society, priority 2021, published 2024).
pEC50: −log10 of the molar value. Read-outs that look alike come from different tables or passages of the source.

Columns and labels:
[1] = tested on: pDNA-PK induction in FaDU tumour spheroids; test: Multicellular tumour spheroid + radiation, pDNA-PK (ser2056) inhibition, immunohistochemical endpoint, FaDU; assay type: cell-based; details: Homo sapiens, 20 Gy
Description: (§1) Multicellular tumour spheroids determination of compound inhibition of pDNA-PK induction following radiation. Tumour spheroids were grown to approximately 0.5 mm in diameter and irradiated with 20 Gy in combination with inhibitor test compounds to determine their potency. Inhibitor concentration for 50% reduction in pDNA-PK induction (IC50) was determined via immunohistochemical staining in spheroid cryosections taken 2 hours following radiation. For cell survival endpoint 8 Gy radiation was used and 3 hours following radiation spheroids were dissociated, counted and plated for colony forming endpoint.
Spheroid+radiation pDNA-PK. Radiation: 20 Gy. Drug: serial dilution 5 or 10 μM down to 3.5 nM (11 wells). Spheroids: 3-6 spheroids per well (300-500 μm diameter). 20% 02 and 5% CO2. 96 well plate format. Endpoint: fluorescent immunostain pDNA-PK ser2056 and image on microscope. Analysis: determine EC50 concentrations that decreases pDNA-PK induction by 50% after irradiation.
(§2) Multicellular tumour spheroids were used to determine potency of test compounds in a 3D tissue environment using inhibition of pDNA-PK induction following radiation or cell survival as the endpoint. For the pDNA-PK endpoint HCT116 or FaDU tumour spheroids were grown to approximately 0.5 mm in diameter and irradiated with 20 Gy in combination with inhibitor test compounds to determine their potency. Experiments were carried out in 96 well plates containing 0.7 mls of MEM media containing 10% FBS and 10 mM glucose under 20% O2 & 5% CO2 at 37° C. Following dilution of compounds 1:1000 from DMSO stocks, compounds were serially diluted from 10 μM down to 3.5 nM and 5-10 spheroids added. 96 well plates were constantly stirred to avoid spheroids settling during the course of the experiment. The inhibitor concentration for 50% reduction in pDNA-PK induction (EC50) was determined via immunohistochemical staining in spheroid cryosections taken 2 hours following radiation using anti-pDNA-PK (ser 2056) and fixed immediately in formalin following sectioning. For cell survival endpoint 8 Gy radiation was used and, 3 hours following radiation, spheroids were dissociated, counted and plated for colony forming endpoint. Data presented in the table compound potency as EC50 [μM].

HCT116 tumour spheroids = test: Spheroid + radiation colony forming cell survival assay (SF), HCT116; assay type: cell-based; details: Homo sapiens, HCT-116, 8 Gy
Description: as §1
Spheroid+radiation colony forming cell survival assay (SF). Radiation 8 Gy. Drug: serial dilution 5 μM down to 10 nM (12 wells×2 repeat). Spheroids: 5-10 spheroids per well (300 to 500 μm diameter). HCT116. 5% 02 and 5% CO2. 96 well pate format for assay. Protocol: pre incubate 1 hour with drug, irradiate 8 Gy, post incubate 3 hrs with drug, dissociate spheroids and count cells and plate for colony forming assay. Endpoint: wait 4-7 days and count colonies. Analysis: determine EC50 concentration that increase cell kill by 50% over radiation alone.
as §2

[2] = Pharmacokinetic study in male Beagle dogs (IV and PO), plasma; assay type: in vivo, dog; details: for AUC—% Extrap—obs / Cl_obs / Vz_obs / AUC(0-t) / half-life / AUC(0-inf) / Cmax: dog plasma; for F: dog; for AUC(0-t) / half-life / AUC(0-inf) / Cmax: male, Beagle; for AUC(0-inf): read-out: AUCINF—obs; for Cmax: read-out: Cmax (5 min)
Description: Pharmacokinetic studies were conducted to estimate plasma concentrations obtained after oral gavage (PO) and intravenous (IV) single administration of compounds administered to separate groups of male Beagle dogs. Three (3) dogs were administered a compound via the intravenous (IV) route at 3 mg/kg and 2.5 mL/kg, and plasma was collected at 12 timepoints over a 24-hour period. Following a 7 days washout period, the same dogs were administered the same compound via PO at 10 mg/kg and 5 mL/kg, and plasma was collected at 12 timepoints over a 48-hour period.
The in-vivo study plasma samples were analyzed using Ultra Performance Liquid Chromatography (UPLC) with tandem mass spectrometry (MS/MS) detection in multiple reaction monitoring (MRM) mode. A generic bioanalytical method involving plasma sample extraction and cleanup by protein precipitation with acetonitrile was used followed by UPLC-MS/MS analysis.
A brief example of a generic bioanalytical UPLC-MS/MS method used for analysis of compounds in the in-vivo study plasma samples is as follows. Plasma samples were spiked with internal standard prior to extraction and cleanup by protein precipitation with ice cold acetonitrile containing 0.1% (v/v) ammonium hydroxide at a ratio of 3:1 (solvent:plasma) and centrifuged at 18213 rcf for 15 minutes at 4° C. to pellet precipitates. Aliquots of supernatants were transferred to a 96-well plate and evaporated to dryness at 40° C. under a stream of nitrogen gas. Samples were reconstituted in 50:50 acetonitrile/10 mM ammonium acetate buffer pH 8, mixed thoroughly and analyzed using Ultra Performance Liquid Chromatography (UPLC) with tandem mass spectrometry (MS/MS) detection in multiple reaction monitoring (MRM) mode. Matrix-matched calibration standards and quality control (QC) samples were prepared in naïve C57Bl/6 mouse plasma. The UPLC column used was Waters Acquity UPLC BEH C18 1.7 um, 2.1 mm×50 mm (with guard column). The UPLC mobile phase consisted of: Mobile phase A: 10 mM ammonium acetate in Water pH 8, and Mobile phase B: Acetonitrile. Separation was accomplished with a linear gradient of 5% mobile phase B to 95% mobile phase B in 2 min, and a flow rate of 0.35 mL/min. The MS/MS data acquisition was accomplished using 3 MRM Transitions in ESI+ mode. Parent ion mass 508.37 m/z-to-Daughter ions (m/z) 117.05, 232.13 and 270.22. The quantitation of concentrations in test samples was achieved by matrix-matched calibration with normalization using an internal standard. Data acquisition and analysis were performed using Waters MassLynx software with TargetLynx application manager.
Estimation of PK parameters was performed using independent noncompartmental model method by PHOENIX WinNonlin software.

[3] = 2 hours following radiation, 20% O2, Example 9 Study 2, read-out: Spheroid Cell line: FaDU Immunohistochemical endpoint pDNA-PK inhibition EC50
[4] = 2 h, spheroids, 20% O2, Example 8, read-out: Cell line: FaDU Immunohistochemical endpoint pDNA-PK inhibition EC50
[5] = plated 3 hours following radiation, Example 9 Study 2, read-out: Spheroid Cell line: HCT116 Colony forming endpoint Surviving Fraction EC50
[6] = spheroids, 5% O2, concentration that increases cell kill by 50% over radiation alone, Example 8, read-out: Cell line: HCT116 Colony forming endpoint Surviving Fraction EC50

Row | SMILES | pEC50 [1, 3] | pEC50 [1, 4] | pEC50 (HCT116 tumour spheroids; [5]) | pEC50 (HCT116 tumour spheroids; [6]) | AUC—% Extrap—obs ([2]; IV, 3 mg/kg) [%] | Cl_obs ([2]; IV, 3 mg/kg) [mL/min/kg] | Vz_obs ([2]; IV, 3 mg/kg) [L/kg] | AUC—% Extrap—obs ([2]; PO, 10 mg/kg) [%] | Cl_obs ([2]; PO, 10 mg/kg) [mL/min/kg] | Vz_obs ([2]; PO, 10 mg/kg) [L/kg] | F ([2]; PO, 10 mg/kg) [%] | AUC(0-t) ([2]; IV, 3 mg/kg) [ng·h/mL] | half-life ([2]; IV, 3 mg/kg) [h] | AUC(0-inf) ([2]; IV, 3 mg/kg) [ng·h/mL] | Cmax ([2]; IV, 3 mg/kg) [ng/mL] | AUC(0-t) ([2]; PO, 10 mg/kg) [ng·h/mL] | half-life ([2]; PO, 10 mg/kg) [h] | AUC(0-inf) ([2]; PO, 10 mg/kg) [ng·h/mL] | Cmax ([2]; PO, 10 mg/kg) [ng/mL]
1 | CN(C)C(=O)COc1cnc(N[C@H]2CC[C@@H](Oc3nc(N4CCOCC4)cc4ncccc34)CC2)nc1 [Compound 54, N,N-Dimethyl-2-((2-(((1s,4s)-4-((7-morpholino-1,6-naphthyridin-5-yl)oxy)cyclohexyl)amino)pyrimidin-5-yl)oxy)acetamide] | 6.30 to 8.00 | 6.30 to 8.00 | 6.30 to 8.00 | 6.30 to 8.00 | – | – | – | – | – | – | – | – | – | – | – | – | – | – | –
2 | O=C(COc1cnc(N[C@H]2CC[C@@H](Oc3nc(N4CCOCC4)cc4ncccc34)CC2)nc1)N1CCOCC1 [Compound 61, 1-Morpholino-2-((2-(((1s,4s)-4-((7-morpholino-1,6-naphthyridin-5-yl)oxy)cyclohexyl)amino)pyrimidin-5-yl)oxy)ethan-1-one] | – | – | – | – | 0.79 | 14.338 | 4.48058 | 0.78 | 35.8008 | 11.52897 | 46 | 3480 | 3.64 | 3500 | 3700 | 5300 | 4.39 | 5340 | 1070
3 | CN(C)CCOc1cnc(N[C@H]2CC[C@@H](Oc3nc(N4CCOCC4)cc4ncccc34)CC2)nc1 [Compound 64, 5-(2-(Dimethylamino)ethoxy)-N-((1s,4s)-4-((7-morpholino-1,6-naphthyridin-5-yl)oxy)cyclohexyl)pyrimidin-2-amine] | 6.30 to 8.00 | 6.30 to 8.00 | 6.30 to 8.00 | 6.30 to 8.00 | – | – | – | – | – | – | – | – | – | – | – | – | – | – | –
4 | CN1CCN(CCOc2cnc(N[C@H]3CC[C@@H](Oc4nc(N5CCOCC5)cc5ncccc45)CC3)nc2)CC1 [Compound 69, 5-(2-(4-Methylpiperazin-1-yl)ethoxy)-N-((1s,4s)-4-((7-morpholino-1,6-naphthyridin-5-yl)oxy)cyclohexyl)pyrimidin-2-amine] | – | – | – | – | 23.94 | 32.4562 | 37.41197 | 9.05 | 27.6643 | 32.69379 | 143 | 1180 | 13.3 | 1560 | 397 | 5640 | 13.8 | 6220 | 291
5 | CN(C)C(=O)Cn1ccc2nc(N[C@H]3CC[C@@H](Oc4nc(N5CCOCC5)cc5ncccc45)CC3)ncc21 [Compound 86, N,N-Dimethyl-2-(2-(((1s,4s)-4-((7-morpholino-1,6-naphthyridin-5-yl)oxy)cyclohexyl)amino)-5H-pyrrolo[3,2-d]pyrimidin-5-yl)acetamide] | – | – | – | – | 5.80 | 28.2873 | 28.9956 | 0.51 | 28.6397 | 6.54871 | 105 | 1730 | 13.1 | 1850 | 1730 | 6090 | 2.62 | 6130 | 1540
6 | O=C(O)c1cnc2cc(N3CCOCC3)nc(O[C@H]3CC[C@@H](n4ccnc4)CC3)c2c1 [Compound 165, 5-(((1s,4s)-4-(1H-imidazol-1-yl)cyclohexyl)oxy)-7-morpholino-1,6-naphthyridine-3-carboxylic acid] | – | – | 4.00 to 5.00 | 4.00 to 5.00 | – | – | – | – | – | – | – | – | – | – | – | – | – | – | –
7 | O=C(NO)c1cnc2cc(N3CCOCC3)nc(O[C@H]3CC[C@@H](n4ccnc4)CC3)c2c1 [Compound 172, 5-(((1s,4s)-4-(1H-imidazol-1-yl)cyclohexyl)oxy)-N-hydroxy-7-morpholino-1,6-naphthyridine-3-carboxamide] | 5.00 to 6.00 | 5.00 to 6.00 | – | – | – | – | – | – | – | – | – | – | – | – | – | – | – | – | –
8 | CS(=O)(=O)NC(=O)c1cnc2cc(N3CCOCC3)nc(O[C@H]3CC[C@@H](n4ccnc4)CC3)c2c1 [Compound 175, 5-(((1s,4s)-4-(1H-imidazol-1-yl)cyclohexyl)oxy)-N-(methylsulfonyl)-7-morpholino-1,6-naphthyridine-3-carboxamide] | – | – | 4.00 to 5.00 | 4.00 to 5.00 | – | – | – | – | – | – | – | – | – | – | – | – | – | – | –
